In patent publication US12274703B2, “Compositions and methods of treatment for neurological disorders comprising a dementia” (Gliapharm SA, priority 2017, dated 2025):
Counter-ions that a name gives are not always drawn. Like-named read-outs stand apart in the source and are kept apart here.

Assays:
astrocytes [1] = experiment: MTT viability assay; format: cell-based; conditions: Mus musculus, Astrocyte, cellular toxicity, 0-200 uM
Protocol: (§1) Primary cultures of cerebrocortical astrocytes were obtained from 1-2-day-old OF1 mouse pups (Charles River Laboratories). Briefly, cortices were isolated and minced in small pieces under a dissecting microscope. The cells were incubated for 30 min at 37° C. in a solution containing 20 U/ml of papain enzyme (Worthington Biochemical), L-cysteine 1 mM (Sigma), and 10 kU/ml DNase I (Worthington Biochemical) for an enzymatic dissociation. Papain activity was stopped by the addition of fetal calf serum (FCS) to the solution, and a single-cell suspension was then obtained by mechanical dissociation, which consisted in cells trituration in a DMEM (D7777, Sigma-Aldrich) medium (supplemented with 44 mm NaHCO3, and 10 ml/L antibiotic/antimycotic solution) containing 10% FCS. The cells were seeded at an average density of 6×10^4 cells/cm^2 in poly-D-lysine-coated 96, 12 or 6-well culture plates, depending on their use, and incubated at 37° C. in a humidified atmosphere containing 5% CO2/95% air. Culture medium was renewed twice per week. Cells were stimulated and harvested between DIV14 and DIV17, when confluence and cell growth were optimal.
For cell toxicity determination, astrocytes in 96-well plates were stimulated 24 h (37° C. 5% CO2/95% air) with a gradient ranging from 0.1 to 200 μM of tested compounds. After stimulation, 5 mg/ml thiazol blue tetrazolium bromide (MTT, Sigma-Aldrich) in warm D5030 complete medium was added to each well, and cells were incubated for 4 h at 37° C. (5% CO2). The medium was then removed by aspiration, and the reaction was stopped by the addition of 50 μl DMSO per well.
The amount of reduced MTT (formazan) solubilized in DMSO was then determined spectrophotometrically using absorbance at 570 nm (Safire 2; Tecan).
MTT cellular viability assay was performed on astrocytes exposed to molecules from the Prestwick library (Prestwick hits; concentrations ranging from 0 uM to 200 uM).
MTT cellular viability assay was performed on astrocytes exposed to CDC54K hits (concentrations ranging from 0 uM to 200 uM).

primary astrocytes = experiment: High throughput screening for lactate secretion: acidification of extracellular medium (SNARF5); format: cell-based, mouse; design: key to Score / HTS Score (lactate) / HTS Score (SNARF5) / Score_SNARF: fraction of positive control activity (positive control = 100%); conditions: for Emax at 10 µM: Mus musculus, Astrocyte, 1.5 h; for Score_SNARF: primary screening confirmation (SNARF5)
Summary of the method: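 Mouse cortical astrocytes (DIV17) stimulated 90 min at 10 uM compound (1% DMSO) in low-bicarbonate DMEM, 5 mM glucose, with SNARF-5F; extracellular acidification read as 630/580 nm emission ratio (exc 480 nm). Duplicates; score as % of CCCP 2 uM control, hits >3× summed SD above DMSO.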

astrocytes [2] = experiment: Extracellular lactate quantification; format: cell-based, mouse; conditions: for EC50: Mus musculus, Astrocyte; for Score_LACTATE: Appendix I, secondary screening, dosage of extracellular lactate
Protocol: as §1
Secretion of L-lactate was determined in the extracellular medium of 96-well plated astrocytes after 90 min stimulation (at 37° C., in 5% CO2/95% air conditions) with the drug of interest. The stimulation medium was composed of D5030 medium (completed with D-glucose 5 mM and 44 mM sodium bicarbonate) for 90 min in concentrations ranging from 0 to 100 μM.
Briefly, 200 μl of a Glycine (Sigma)-Semicarbazide (Acros) 0.2M pH 10 buffer containing 3 mM NAD (Roche) and LDH 14 U/ml (Roche) was added to each well of a 96-well plate containing 30 μl aliquots complemented with 20 μl fresh complete D5030 medium. Samples were incubated at 37° C. for 1 h. After samples cooled down at room temperature, the fluorescence intensity (340 nm excitation/450 nm emission) that represents the amount of NADH produced was measured, and lactate concentration values were determined from a standard curve of L-lactate.
Statistical analysis consisted in ANOVA followed by Fisher LSD post-hoc test for pair-wise comparisons.
Levels of lactate secreted by astrocytes were measured in the extracellular medium at 90 min after stimulation with hits (molecules) from the CDC54K library.

astrocytes [3] = experiment: Intracellular glycogen quantification; format: cell-based, mouse; conditions: 10 μM, 3 h
astrocytes [4] = experiment: Production of H2O2 (mitochondrial activity); format: cell-based; conditions: Mus musculus, Astrocyte, 1.5 h; CDC54K hits; 0-200 uM, 90 min
Protocol: as §1
Hydrogene peroxide (H2O2) released in the supernatant is detected enzymatically with Amplex red (Zhou, Diwu et al. 1997). Oxidation of Amplex red is catalysed by the horseradish peroxidase in presence of H2O2 into highly fluorescent resorufin. Fluorescence measure is read at 545 nm extinction, 590 nm emission. The amount of H2O2 was expressed relatively to the proteins content extracted from the cells in culture. […]
Mitochondrial respiration in astrocytes was measured through production of H2O2 at 90 min after stimulation with CDC54K hits (ranging from 0 to 200 uM).

[5] = Prestwick hits, 10 uM, 90 min, activity relative to positive control CCCP 2 uM, read-out: Score
[6] = Prestwick hits, 10 uM, 90 min, relative to positive control CCCP 2 uM, read-out: HTS Score (lactate)
[7] = 1.5 h, Prestwick hits, 0-100 μM, 90 min, read-out: Lactate EC50
[8] = Appendix I, primary screening, 10 uM, 90 min, relative to positive control
[9] = CDC54K hits, 10 uM, 90 min, relative to positive control CCCP 2 uM
[10] = 1.5 h, CDC54K hits, 0-100 uM, 90 min, read-out: Lactate EC50
[11] = Appendix I, primary screening, 10 uM, 90 min, relative to positive control, read-out: Score
[12] = CDC54K hits, 10 uM, 90 min, relative to positive control CCCP 2 uM, read-out: HTS Score (SNARF5)

| SMILES | EC50 (astrocytes [2]; [7]) | IC50 (astrocytes [4]) | EC50 (astrocytes [2]; [10]) | IC50 (astrocytes [1]; Prestwick hits, 24 h) | Emax at 10 µM (primary astrocytes; [5]) | Emax at 10 µM (primary astrocytes; [6]) | IC50 (astrocytes [1]; CDC54K hits) | further results |
| --- | --- | --- | --- | --- | --- | --- | --- | --- |
| COc1ccc(Cc2nccc3cc(OC)c(OC)cc23)cc1OC [Papaverine hydrochloride] | 0.629 µM | – | – | > 200 µM | 35.5% | 35.5% | – | – |
| O=C(COc1ccc(Cl)cc1)N1CCN(Cc2ccc3c(c2)OCO3)CC1 [Fipexide hydrochloride] | 5.16 µM | – | – | 44 µM | 16.6% | 16.6% | – | Glycogen (statistical significance of glycogen degradation) (astrocytes [3]; Prestwick hits): ns |
| O=c1n(CCCN2CCN(c3cccc(Cl)c3)CC2)nc2ccccn12 [Trazodone hydrochloride, trazodone, reference compound] | – | – | – | – | – | – | – | Score (primary astrocytes; Prestwick hits, 10 uM, 90 min, activity relative to positive control CCCP 2 uM): 0.08377; HTS Score (lactate) (primary astrocytes; Prestwick hits, 10 uM, 90 min, relative to positive control CCCP 2 uM): 0.084; Glycogen (statistical significance of glycogen degradation) (astrocytes [3]; Prestwick hits): ns |
| C#C[C@]1(O)CC[C@H]2[C@@H]3[C@H](C)CC4=C(CCC(=O)C4)[C@H]3CC[C@@]21C [Tibolone] | 2.23 µM | – | – | 60.7 µM | 22.7% | 22.7% | – | – |
| CC[N+](CC)(CC(=O)Nc1c(C)cccc1C)Cc1ccccc1 [Denatonium benzoate] | 12.2 µM | – | – | 178 µM | 11% | 11% | – | – |
| CCc1ccc(S(=O)(=O)Nc2ccc3[nH]ncc3c2)cc1 [T5599014] | – | 158 µM | 8.8 µM | – | – | – | > 200 µM | Score_SNARF (primary astrocytes; Appendix I): 0.5778; Score (primary astrocytes; [8]): 0.5424; HTS Score (SNARF5) (primary astrocytes; [9]): 0.542; Score_LACTATE (astrocytes [2]): 0.4419; Glycogen (statistical significance of glycogen degradation) (astrocytes [3]; CDC54K hits): ns |
| COc1ccccc1NC(=O)Cc1nn(C)c(=O)c2ccccc12 [K851-0113] | – | > 200 µM | 2 µM | – | – | – | > 200 µM | Emax at 10 µM (primary astrocytes; [11]): 72.2%; Emax at 10 µM (primary astrocytes; [12]): 72.2%; Glycogen (statistical significance of glycogen degradation) (astrocytes [3]; CDC54K hits): ns |
| N=C(N)N1CCc2ccccc2C1 [Debrisoquin sulfate] | 2.73 µM | – | – | > 200 µM | 23.8% | 23.8% | – | – |

Second part, led by results:

| EC50 (astrocytes [2]; [7]) | IC50 (astrocytes [4]) | EC50 (astrocytes [2]; [10]) | SMILES | IC50 (astrocytes [1]; Prestwick hits, 24 h) | Emax at 10 µM (primary astrocytes; [5]) | Emax at 10 µM (primary astrocytes; [6]) | IC50 (astrocytes [1]; CDC54K hits) | further results |
| --- | --- | --- | --- | --- | --- | --- | --- | --- |
| 11.7 µM | – | – | CC(C)[N+](C)(CCOC(=O)C1c2ccccc2Oc2ccccc21)C(C)C [Propantheline bromide] | 12.8 µM | 49.1% | 49.1% | – | – |
| 0.602 µM | – | – | COC1=C(OC)C(=O)C(CCCCCCCCCCO)=C(C)C1=O [Idebenone] | 112 µM | 25.9% | 25.9% | – | – |
| – | > 200 µM | 10 µM | CCc1ccc(S(=O)(=O)N2CCSC2c2ccc(OC)c(OC)c2)cc1 (stereo not shown) [T5463586] | – | – | – | > 200 µM | Score_SNARF (primary astrocytes; Appendix I): 0.5553; Score (primary astrocytes; [8]): 0.7707; HTS Score (SNARF5) (primary astrocytes; [9]): 0.77; Score_LACTATE (astrocytes [2]): 0.3936 |
| – | 173 µM | 2 µM | CSc1cccc(NS(=O)(=O)c2ccc3onc(C(=O)N4CCCC4)c3c2)c1 [L995-0125] | – | – | – | > 200 µM | Score_SNARF (primary astrocytes; Appendix I): 0.8016; Score (primary astrocytes; [8]): 0.8545; HTS Score (SNARF5) (primary astrocytes; [9]): 0.854; Score_LACTATE (astrocytes [2]): 0.9122; Glycogen (statistical significance of glycogen degradation) (astrocytes [3]; CDC54K hits): ns |
| 1.17 µM | – | – | C[N+]1(C)CCC(=C(c2ccccc2)c2ccccc2)CC1 [Diphemanil methylsulfate] | 13.9 µM | 48.4% | 48.4% | – | – |
| – | > 200 µM | 23.5 µM | COc1cccc(CNS(=O)(=O)c2ccc3c(c2)CCCN3C(C)=O)c1 [T5967389] | – | – | – | > 200 µM | Emax at 10 µM (primary astrocytes; [11]): 79%; Emax at 10 µM (primary astrocytes; [12]): 79%; EC50 (astrocytes [2]; Appendix II, lactate secretion, read-out: EC50): 9.67 µM |
| 0.854 µM | – | – | [H]/N=C(\N/C(=N/[H])Nc1ccc(Cl)cc1)NC(C)C [Proguanil hydrochloride] | 48.1 µM | 55.5% | 55.5% | – | – |
| – | > 200 µM | 10.2 µM | CC(=O)c1cccc(NC(=O)C(C)Sc2ncnc3ccccc23)c1 (stereo not shown) [T0511-9200] | – | – | – | > 200 µM | Emax at 10 µM (primary astrocytes; [11]): 84.4%; Emax at 10 µM (primary astrocytes; [12]): 84.4%; Glycogen (statistical significance of glycogen degradation) (astrocytes [3]; CDC54K hits): ns |
| 2.57 µM | – | – | Cc1c(C)c2c(c(C)c1O)CCC(C)(COc1ccc(CC3SC(=O)NC3=O)cc1)O2 (stereo not shown) [Troglitazone] | 106 µM | 27% | 27% | – | – |
| – | > 200 µM | 15 µM | Fc1ccc(-c2cc3n(n2)CCCN(Cc2ccncc2)C3)cc1 [T202-1455] | – | – | – | > 200 µM | Emax at 10 µM (primary astrocytes; [11]): 97.1%; Emax at 10 µM (primary astrocytes; [12]): 97.1%; Glycogen (statistical significance of glycogen degradation) (astrocytes [3]; CDC54K hits): ns |
